These results are taken from PubChem BioAssay (NCI).

The structures appear in SMILES notation. Values joined by “and” are separate entries in the source; they are usually repeats but may differ in a detail not shown here. Equal values may be shown once.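 Protocol summary: plate cells (96-well), add compound at 5 concentrations, incubate 48 h, interpolate endpoints linearly. The concentration for 50% growth inhibition is given as GI50. TGI: total growth inhibition.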 *1 amine or outer side, *2 acyl side, *3 side chain or, on linkers, in order; H or OH if unused. Where a SMILES comes first, the peptide text is derived from it. Bridges are numbered along the chain shown (N, C = ends). [ ]: non-standard residue; d: D form. The star is where a group is joined. Phe(3-Me) = Cc1cccc(C[C@H](N)C(=O)O)c1; NH(4-Cl-2-F-phenyl) = Fc1cc(Cl)ccc1N*; Pro(4R-Me) = C[C@H]1CN[C@H](C(=O)O)C1; Propanoyl(3-NMe2) = CN(C)CCC(=O)*; Hyp = O=C(O)[C@@H]1C[C@@H](O)CN1; aThr = C[C@H](O)[C@H](N)C(=O)O; Pip = O=C(O)[C@@H]1CCCCN1; CO = O=C([*:1])[*:2]

In this experiment the test system is MDA-MB-468 breast. Kind of experiment: NCI tumour cell line growth inhibition, 48 h.
For `CSc1nc2c(c(=O)[nH]1)C(c1ccc(Cl)cc1)C1=C(N2)/C(=C/c2ccc(Cl)cc2)CNC1` (configuration not stated), the GI50 is 1.8 µM and the TGI is 4.02 µM.

For the compound `COc1cc(C2C(C#N)=C(N)Oc3cc(O)ccc32)cc(OC)c1OC` (configuration not stated), the GI50 is 0.28 µM and the TGI turned out to be 1.14 µM.

Consider `O=C1c2cccnc2C(=O)c2c1c(C(=O)OCCN1CCOCC1)c1ccccn21`, for which the GI50 was 1.51 µM and the TGI came out at 6.74 µM.

On to `Cc1ccc(NC(=O)c2nc(S(C)=O)oc2-c2ccc(F)cc2)cc1Nc1nccc(-c2cccnc2)n1` (configuration not stated), for which the GI50 was 2.14 µM and the TGI is 4.65 µM.

Consider `O=C(O)c1cc(Sc2ccc([N+](=O)[O-])c(C(=O)O)c2)ccc1[N+](=O)[O-]`, for which the GI50 was more than 100 µM and the TGI was more than 100 µM.

With `CC/C=C\C/C=C\C[C@H]1C/C=C2/C(=O)C=C[C@H]2C/C=C\CCC(=O)O1`, the GI50 was 1.86 µM and the TGI was determined as 5 µM.

As to `CC(C)[C@@H]1CC[C@@H]2[C@@H]1[C@H](OC(=O)/C=C/c1ccccc1)[C@]1(C(C)C)C[C@@H](OC(=O)CO)[C@@]2(C)O1`, the GI50 was 6.07 µM and the TGI stood at 12.6 µM.

`CC1Cc2cc(O)ccc2C2[C@@H]1C1CC[C@H](O)[C@@]1(C)C[C@@H]2O[N+](=O)[O-]` (some centres not stated): the GI50 is 27.6 µM and the TGI is more than 100 µM.

Take `CC[C@]12CCCN3CC[C@]4(C(=C(C(=O)OC)C1)Nc1ccccc14)[C@@H]32`: the GI50 is 11.7 µM and the TGI was 28 µM.

Regarding `CC(C)Oc1ccc(C(=O)N[C@H](CNC(=O)CN(C)C)Cc2ccc(-c3cn4cccc([C@H](C)O)c4n3)cc2)cc1Cl`, the GI50 is 0.0389 µM and the TGI is 17.5 µM.

In the case of `C[C@@]1(N2C(=O)OC[C@@H]2c2ccccc2)C(=O)N([C@H](CC(=O)N2CCC(N3CCCCC3)CC2)C(=O)NCc2cccc(C(F)(F)F)c2)[C@@H]1/C=C/c1ccccc1`, the GI50 was 1.9 µM and the TGI worked out at 3.77 µM.

Consider `N=c1ccn2c(n1)O[C@@H]1[C@@H](O)[C@H](CO)O[C@@H]12`, for which the GI50 is 48.4 µM and the TGI is more than 100 µM.

Take `NC[C@@](O)(c1ccc(Cl)cc1)c1ccc(-c2cn[nH]c2)cc1`: the GI50 was 1.08 µM and 0.54 µM; the TGI was 3.79 µM and 2.01 µM.

Regarding `CCN1CCN(C(=O)[C@]23CCC(C)(C)C[C@@H]2C2=CC[C@@H]4[C@@]5(C)C/C(=C/c6cccnc6)C(=O)C(C)(C)[C@@H]5CC[C@@]4(C)[C@]2(C)CC3)CC1`, the GI50 is 1.28 µM and the TGI stood at 3.94 µM.

`COc1ccc(-c2nc(C(Cl)Cl)nc3cc(-c4ccccc4)nn23)cc1`: the GI50 was 1.09 µM and the TGI came out at 3.1 µM.

`CCc1ccc(Nc2cc(C)nc3nc(C)nn23)cc1`: the GI50 is 28.6 µM and the TGI was more than 100 µM.

With `CC(=O)Nc1sc2c(c1-c1nc3ccccc3s1)CNC2`, the GI50 is 1.88 µM and the TGI was determined as 7.24 µM.

Take `C/C(=N\NC(=O)c1ccncc1)c1ccc(O)cc1O`: the GI50 is 4.16 µM and the TGI was 50.8 µM.

Regarding `CCCN1CCN(c2ccc3nc(-c4ccc5nc(-c6ccc(OCC)c(OCC)c6)[nH]c5c4)[nH]c3c2)CC1`, the GI50 was 0.369 µM and the TGI worked out at 1.3 µM.

In the case of `COc1ccc(/C=C/C(=O)c2ccc(Nc3ccnc4cc(Cl)ccc34)cc2)cc1`, the GI50 was more than 100 µM and the TGI is more than 100 µM.

For `O=C(/C=C/c1cccnc1)c1ccccc1O`, the GI50 was 15.1 µM and the TGI stood at 37.3 µM.

Consider `COc1cc2c3c(c4c5ccccc5[nH]c4c2c(OC)c1OC)C(=O)N(CCN1CCCCC1)C3=O`, for which the GI50 was 1.6 µM and the TGI worked out at 19.2 µM.

Regarding `COc1cc(NC(N)=NCCC(C)(C)c2ccc(C(F)(F)F)cc2)ncc1C#N`, the GI50 was 1.24 µM and the TGI is 2.8 µM.

Turning to `COc1ccc(Nc2ncccc2C(=O)NCc2cn(Cc3cccc(Oc4ccccc4)c3)nn2)cc1`, the GI50 is 2.32 µM and the TGI was 6.95 µM.

For `Nc1nc2c(c3cnccc13)C(c1cccc(Cl)c1)Cc1cnccc1-2` (configuration not stated), the GI50 is 0.21 µM and the TGI was 0.576 µM.

With `COc1ccc(-c2nocc2-c2cc(OC)c(OC)c(OC)c2)cc1`, the GI50 is 0.105 µM and the TGI came out at 18.6 µM.

As for `C=C1N(C)c2ccc(Cl)cc2C1(C)C`, the GI50 was 2.64 µM and the TGI is 15.6 µM.

Take `COc1ccc(Cn2c(Br)c3c(c2-c2cc(OC)c(OC)c(OC)c2)CCc2sc(NC(C)=O)nc2-3)cc1`: the GI50 is 4.86 µM and the TGI was determined as 46.3 µM.

Consider `CCOC(=O)Nc1cccc(-n2cnc3cc(-c4ccc(O)cc4)ccc32)c1`, for which the GI50 was 0.243 µM and the TGI was determined as 10.6 µM.

Regarding `O=C(CN1CCN(c2ccc(Cl)cc2)CC1)N1CCN(c2nnc(-c3ccccc3)c(-c3ccccc3)n2)CC1`, the GI50 was 1.83 µM and the TGI stood at 53.3 µM.

As to `COc1cc2c3c(n(CCCN4CCCC4)c(=O)c2cc1OC)-c1cc2c(cc1C3=O)OCO2`, the GI50 was 1.57 µM and the TGI was 3.17 µM.

Consider `COc1cc(OC)cc(-c2cncn2-c2ccc(-c3nc4cc(OC)c(OC)c(OC)c4s3)cc2)c1`, for which the GI50 is 10.7 µM and the TGI was more than 100 µM.

For the compound `CN1CCCN(C(c2ccccc2)c2ccc(Br)cc2)CC1` (configuration not stated), the GI50 was 1.93 µM and the TGI came to 6.53 µM.

With `Nc1c(C(=O)Nc2ccccc2)sc2nc3c(cc12)CCCC3`, the GI50 is 0.317 µM and the TGI was 47.9 µM.

On to `O=C(Nc1ccc(Br)cc1F)c1cc(Br)ccc1O`, for which the GI50 was 0.873 µM and the TGI was found to be 5.42 µM.

For `CC[C@@]1(O)C(=O)OCc2c1cc1n(c2=O)Cc2c-1nc1ccccc1c2/C=N/OC(C)(C)C`, the GI50 is less than 0.01 µM and the TGI came out at 0.0592 µM.

In the case of `O=C(CCl)Nc1ccc2c(c1)C(=O)c1ccc(NC(=O)CCl)cc1C2=O`, the GI50 was 0.425 µM and the TGI was found to be 1.55 µM.

Consider `Cc1ccccc1/C=C1\CN(C(=O)OC(C)(C)C)C/C(=C\c2ccccc2C)C1=O`, for which the GI50 is 1.83 µM and the TGI turned out to be 4.45 µM.

`O=S(=O)(NCCCNc1cc(-c2cn(-c3ccccc3)nc2-c2cccc(O)c2)ccn1)c1ccc(Cl)cc1`: the GI50 was 1.16 µM and the TGI is 4.56 µM.

For the compound `C[C@]12CC[C@H]3[C@@H](C[C@@H]4N=C(c5ccc(O)cc5)S[C@@]45C[C@H](O)CC[C@]35C)[C@@H]1CC[C@@H]2O`, the GI50 was 5.13 µM and the TGI is 41.6 µM.

As to `Cc1cccc(C[C@H](NC(=O)Nc2ccc(Cl)cc2F)C(=O)N[C@@H]2C(=O)N3C[C@H](OC(=O)CCN(C)C)C[C@H]3C(=O)N3CCCC[C@H]3C(=O)N[C@@H](C)C(=O)N3C[C@H](C)C[C@H]3C(=O)O[C@H]2C)c1` ({NH(4-Cl-2-F-phenyl)-CO}-[Phe(3-Me)][aThr][Hyp](Propanoyl(3-NMe2))[Pip]A[Pro(4R-Me)]; ester 2-C), the GI50 was 0.255 µM and the TGI was 0.894 µM.
